According to patent US20260130395A1, “Water Dispersible Botanical Compositions” (Aquila Black Limited, priority 2021, published 2026):

Assay: Stability of cannabinoid compounds and Vitamin E components in Beverage 2 (AB Red) by LCMSMS
Type: physicochemical

## CCCCCc1cc(O)c2c(c1)OC1(C)CCC3C1C2C3(C)C (centres unmarked) [CBL, cannabicyclol]
Stored at 8° C., 0 days
  Stability of Plant-Derived Cannabinoid Compounds in AB Red: 0.510 µg/mL
Stored at 8° C., 1 days
  Stability of Plant-Derived Cannabinoid Compounds in AB Red: 0.512 µg/mL
Stored at 8° C., 2 days
  Stability of Plant-Derived Cannabinoid Compounds in AB Red: 0.508 µg/mL
Stored at 8° C., 3 days
  Stability of Plant-Derived Cannabinoid Compounds in AB Red: 0.499 µg/mL
Stored at 8° C., 5 days
  Stability of Plant-Derived Cannabinoid Compounds in AB Red: 0.501 µg/mL
Stored at 8° C., 8 days
  Stability of Plant-Derived Cannabinoid Compounds in AB Red: 0.496 µg/mL
Stored at 8° C., 9 days
  Stability of Plant-Derived Cannabinoid Compounds in AB Red: 0.496 µg/mL
Stored at 8° C., 10 days
  Stability of Plant-Derived Cannabinoid Compounds in AB Red: 0.505 µg/mL
Stored at 8° C., 11 days
  Stability of Plant-Derived Cannabinoid Compounds in AB Red: 0.501 µg/mL
Stored at 8° C., 12 days
  Stability of Plant-Derived Cannabinoid Compounds in AB Red: 0.499 µg/mL
Stored at 8° C., 15 days
  Stability of Plant-Derived Cannabinoid Compounds in AB Red: 0.510 µg/mL
Stored at 8° C., 16 days
  Stability of Plant-Derived Cannabinoid Compounds in AB Red: 0.502 µg/mL
Stored at 8° C., 17 days
  Stability of Plant-Derived Cannabinoid Compounds in AB Red: 0.514 µg/mL
Stored at 8° C., 18 days
  Stability of Plant-Derived Cannabinoid Compounds in AB Red: 0.513 µg/mL
Stored at 8° C., 19 days
  Stability of Plant-Derived Cannabinoid Compounds in AB Red: 0.510 µg/mL
Stored at 8° C., 22 days
  Stability of Plant-Derived Cannabinoid Compounds in AB Red: 0.495 µg/mL
Stored at 8° C., 23 days
  Stability of Plant-Derived Cannabinoid Compounds in AB Red: 0.502 µg/mL
Stored at 8° C., 24 days
  Stability of Plant-Derived Cannabinoid Compounds in AB Red: 0.508 µg/mL
Stored at 8° C., 25 days
  Stability of Plant-Derived Cannabinoid Compounds in AB Red: 0.510 µg/mL
Stored at 8° C., 26 days
  Stability of Plant-Derived Cannabinoid Compounds in AB Red: 0.502 µg/mL
Stored at 8° C., 29 days
  Stability of Plant-Derived Cannabinoid Compounds in AB Red: 0.511 µg/mL
Stored at 8° C., 30 days
  Stability of Plant-Derived Cannabinoid Compounds in AB Red: 0.511 µg/mL
Stored at 8° C., 60 days
  Stability of Plant-Derived Cannabinoid Compounds in AB Red: 0.491 µg/mL
Stored at 8° C., 90 days
  Stability of Plant-Derived Cannabinoid Compounds in AB Red: 0.501 µg/mL
Stored at 8° C., 120 days
  Stability of Plant-Derived Cannabinoid Compounds in AB Red: 0.488 µg/mL
Stored at 8° C., 150 days
  Stability of Plant-Derived Cannabinoid Compounds in AB Red: 0.501 µg/mL
Stored at 8° C., 180 days
  Stability of Plant-Derived Cannabinoid Compounds in AB Red: 0.506 µg/mL
Stored at 8° C., 210 days
  Stability of Plant-Derived Cannabinoid Compounds in AB Red: 0.490 µg/mL
Stored at 8° C., 240 days
  Stability of Plant-Derived Cannabinoid Compounds in AB Red: 0.490 µg/mL
Stored at 8° C., 270 days
  Stability of Plant-Derived Cannabinoid Compounds in AB Red: 0.504 µg/mL
Stored at 8° C., 300 days
  Stability of Plant-Derived Cannabinoid Compounds in AB Red: 0.489 µg/mL
Stored at 8° C., 330 days
  Stability of Plant-Derived Cannabinoid Compounds in AB Red: 0.505 µg/mL
Stored at 8° C., 360 days
  Stability of Plant-Derived Cannabinoid Compounds in AB Red: 0.495 µg/mL
Stored at 8° C., 390 days
  Stability of Plant-Derived Cannabinoid Compounds in AB Red: 0.491 µg/mL
Stored at 8° C., 420 days
  Stability of Plant-Derived Cannabinoid Compounds in AB Red: 0.494 µg/mL
Stored at 8° C., 450 days
  Stability of Plant-Derived Cannabinoid Compounds in AB Red: 0.492 µg/mL
Stored at 8° C., 480 days
  Stability of Plant-Derived Cannabinoid Compounds in AB Red: 0.487 µg/mL
Stored at 8° C., 510 days
  Stability of Plant-Derived Cannabinoid Compounds in AB Red: 0.468 µg/mL
Stored at 8° C., 540 days
  Stability of Plant-Derived Cannabinoid Compounds in AB Red: 0.470 µg/mL
Stored at 8° C., 570 days
  Stability of Plant-Derived Cannabinoid Compounds in AB Red: 0.469 µg/mL
Stored at 21-25° C., 0 days
  Stability of Plant-Derived Cannabinoid Compounds in AB Red: 0.51 µg/mL
Stored at 21-25° C., 1 days
  Stability of Plant-Derived Cannabinoid Compounds in AB Red: 0.50 µg/mL
Stored at 21-25° C., 2 days
  Stability of Plant-Derived Cannabinoid Compounds in AB Red: 0.50 µg/mL
Stored at 21-25° C., 3 days
  Stability of Plant-Derived Cannabinoid Compounds in AB Red: 0.50 µg/mL
Stored at 21-25° C., 5 days
  Stability of Plant-Derived Cannabinoid Compounds in AB Red: 0.51 µg/mL
Stored at 21-25° C., 8 days
  Stability of Plant-Derived Cannabinoid Compounds in AB Red: 0.50 µg/mL
Stored at 21-25° C., 9 days
  Stability of Plant-Derived Cannabinoid Compounds in AB Red: 0.51 µg/mL
Stored at 21-25° C., 10 days
  Stability of Plant-Derived Cannabinoid Compounds in AB Red: 0.50 µg/mL
Stored at 21-25° C., 11 days
  Stability of Plant-Derived Cannabinoid Compounds in AB Red: 0.50 µg/mL
Stored at 21-25° C., 12 days
  Stability of Plant-Derived Cannabinoid Compounds in AB Red: 0.50 µg/mL
Stored at 21-25° C., 15 days
  Stability of Plant-Derived Cannabinoid Compounds in AB Red: 0.50 µg/mL
Stored at 21-25° C., 16 days
  Stability of Plant-Derived Cannabinoid Compounds in AB Red: 0.51 µg/mL
Stored at 21-25° C., 17 days
  Stability of Plant-Derived Cannabinoid Compounds in AB Red: 0.51 µg/mL
Stored at 21-25° C., 18 days
  Stability of Plant-Derived Cannabinoid Compounds in AB Red: 0.50 µg/mL
Stored at 21-25° C., 19 days
  Stability of Plant-Derived Cannabinoid Compounds in AB Red: 0.49 µg/mL
Stored at 21-25° C., 22 days
  Stability of Plant-Derived Cannabinoid Compounds in AB Red: 0.49 µg/mL
Stored at 21-25° C., 23 days
  Stability of Plant-Derived Cannabinoid Compounds in AB Red: 0.51 µg/mL
Stored at 21-25° C., 24 days
  Stability of Plant-Derived Cannabinoid Compounds in AB Red: 0.50 µg/mL
Stored at 21-25° C., 25 days
  Stability of Plant-Derived Cannabinoid Compounds in AB Red: 0.51 µg/mL
Stored at 21-25° C., 26 days
  Stability of Plant-Derived Cannabinoid Compounds in AB Red: 0.51 µg/mL
Stored at 21-25° C., 29 days
  Stability of Plant-Derived Cannabinoid Compounds in AB Red: 0.49 µg/mL
Stored at 21-25° C., 30 days
  Stability of Plant-Derived Cannabinoid Compounds in AB Red: 0.51 µg/mL
Stored at 21-25° C., 60 days
  Stability of Plant-Derived Cannabinoid Compounds in AB Red: 0.50 µg/mL
Stored at 21-25° C., 90 days
  Stability of Plant-Derived Cannabinoid Compounds in AB Red: 0.49 µg/mL
Stored at 21-25° C., 120 days
  Stability of Plant-Derived Cannabinoid Compounds in AB Red: 0.50 µg/mL
Stored at 21-25° C., 150 days
  Stability of Plant-Derived Cannabinoid Compounds in AB Red: 0.49 µg/mL
Stored at 21-25° C., 180 days
  Stability of Plant-Derived Cannabinoid Compounds in AB Red: 0.50 µg/mL
Stored at 21-25° C., 210 days
  Stability of Plant-Derived Cannabinoid Compounds in AB Red: 0.49 µg/mL
Stored at 21-25° C., 240 days
  Stability of Plant-Derived Cannabinoid Compounds in AB Red: 0.49 µg/mL
Stored at 21-25° C., 270 days
  Stability of Plant-Derived Cannabinoid Compounds in AB Red: 0.49 µg/mL
Stored at 21-25° C., 300 days
  Stability of Plant-Derived Cannabinoid Compounds in AB Red: 0.50 µg/mL
Stored at 21-25° C., 330 days
  Stability of Plant-Derived Cannabinoid Compounds in AB Red: 0.50 µg/mL
Stored at 21-25° C., 360 days
  Stability of Plant-Derived Cannabinoid Compounds in AB Red: 0.49 µg/mL
Stored at 21-25° C., 390 days
  Stability of Plant-Derived Cannabinoid Compounds in AB Red: 0.49 µg/mL
Stored at 21-25° C., 420 days
  Stability of Plant-Derived Cannabinoid Compounds in AB Red: 0.48 µg/mL
Stored at 21-25° C., 450 days
  Stability of Plant-Derived Cannabinoid Compounds in AB Red: 0.49 µg/mL
Stored at 21-25° C., 480 days
  Stability of Plant-Derived Cannabinoid Compounds in AB Red: 0.48 µg/mL
Stored at 21-25° C., 510 days
  Stability of Plant-Derived Cannabinoid Compounds in AB Red: 0.47 µg/mL
Stored at 21-25° C., 540 days
  Stability of Plant-Derived Cannabinoid Compounds in AB Red: 0.47 µg/mL
Stored at 21-25° C., 570 days
  Stability of Plant-Derived Cannabinoid Compounds in AB Red: 0.47 µg/mL
